Reference: US20220096505A1, “PHARMACEUTICAL COMPOSITION, METHODS FOR TREATING AND USES THEREOF” (Boehringer Ingelheim International GmbH, priority 2011, published 2022)

How the values were obtained:
[1] = in vivo; cited from earlier work
[2] = metformin on its own, in the diabetic; cited from earlier work
[3] = Particle size distribution measurement by laser diffraction; format: physicochemical; conditions: milled active substance
Excerpt: The value X90 refers to the 90% value of the volume distribution measured using a laser diffractometer. In other words, for the purposes of the present invention, the X90 value denotes the particle size below which 90% of the quantity of particles is found based on the volume distribution. Analogously the value X50 refers to the 50% value (median) of the volume distribution measured using a laser diffractometer. In other words, for the purposes of the present invention, the X50 value denotes the particle size below which 50% of the quantity of particles is found based on the volume distribution. Analogously the value X10 refers to the 10% value of the volume distribution measured using a laser diffractometer. In other words, for the purposes of the present invention, the X10 value denotes the particle size below which 10% of the quantity of particles is found based on the volume distribution.
Preferably all X90, X50, X10 values hereinbefore and hereinafter are by volume and determined by laser-diffraction method, in particular low angle laser light scattering, i.e. Fraunhofer diffraction. A preferred test is described in the experimental section. The laser diffraction method is sensitive to the volume of a particle and provides a volume-average particle size, which is equivalent to the weight-average particle size if the density is constant. The skilled artesian knows that the results of the particle size distribution determination by one technique can be correlated with that from another technique, for example on an empirical basis by routine experimentation. Alternatively the particle size distribution in the pharmaceutical composition or dosage form can be determined by microscopy, in particular electron microscopy or scanning electron microscopy.
Examples of typical particle size distribution values X90, X50 and X10 for the preferred active pharmaceutical ingredient according to the invention are shown in the table below.
3. Particle Size Distribution Measurement by Laser Diffraction
Particle size distribution measurement is performed for example via light scattering or laser diffraction technique. To determine the particle size the powder is fed into a laser diffraction spectrometer for example by means of a dispersing unit. The test method is described below in detail:
Equipment: Laser Diffraction Spectrometer Sympatec HELOS Particle Sizer.
Lens: R31 (0.5/0.9 μm-175 μm) Sample Dispersing Unit: Dry disperser RODOS/M
Feed Velocity: 60.00 mm/s Primary pressure: 2.00 bar Injector depression: maximize (mbar)2 Reference Measurement: 10 seconds Cycle Time: 100 msec Trigger Conditions: Start 0.0 seconds after optical concentration ≥1% valid always Stop after 5.0 seconds optical concentration ≤1% or after 30 seconds real time Optical Concentration: Approximately range 3-12%
Number of measurements: 2 (duplicate)
The instrument is set up according to the manufacturer's recommendation and using the manufacturer provided software. The sample container is thoroughly mixed and tumbled prior to removing a portion of the sample to ensure that a representative sample is tested. Duplicate samples are prepared by using a spatula to transfer approximately 100 mg of a sample into the ASPIROS glass vials and cap the vials. The capped cials are placed into the feeder.

[4] = listed as Active substance Batch 1
[5] = listed as Active substance Batch 2

Molecule: CC#CCn1c(N2CCC[C@@H](N)C2)nc2c1c(=O)n(Cc1nc(C)c3ccccc3n1)c(=O)n2C [linagliptin]
- route of excretion [1]: primarily excreted by bile and the gut

Molecule: CN(C)C(=N)N=C(N)N [metformin]
- average improvement in the HbA1c value [2]: 1.0-1.5%

Molecule: 1-chloro-4-(β-D-glucopyranos-1-yl)-2-[4-((S)-tetrahydrofuran-3-yloxy)-benzyl]-benzene [compound (I.9)]
- X10 (10% value of the volume distribution, particle size) [3, 4]: 1.8 μm
- X50 (50% value, median, of the volume distribution, particle size) [3, 4]: 18.9 μm
- X90 (90% value of the volume distribution, particle size) [3, 4]: 45.3 μm
- X10 (10% value of the volume distribution, particle size) [3, 5]: 1.7 μm
- X50 (50% value, median, of the volume distribution, particle size) [3, 5]: 12.1 μm
- X90 (90% value of the volume distribution, particle size) [3, 5]: 25.9 μm
